Experimental data as given in the SangsterLogP compilation.

How the values were obtained:
[1] = method code SF, from DOI: 10.1016/0223-5234(96)88244-4; conditions: pH 7.4

logP | logD [1] | SMILES
1.65 |  | N#CN=C(NS(=O)(=O)c1cnccc1NC1CCCCCC1)N1CCCC1
-1.02 |  | CCNc1ccncc1S(=O)(=O)NC(=NC#N)NC(C)C
0.59 |  | CC(C)N=C(NC#N)NS(=O)(=O)c1cnccc1Nc1cccc(F)c1
-0.43 |  | CCCNc1ccncc1S(=O)(=O)NC(=NC#N)NC(C)C
2.15 |  | N#CN=C(NS(=O)(=O)c1cnccc1NC1CCCCCCC1)N1CCCC1
0.2 |  | CC(C)NC(=NC#N)NS(=O)(=O)c1cnccc1NC1CCCC1
0.75 |  | CCNC(=NC#N)NS(=O)(=O)c1cnccc1NC1CCCCCC1
1.14 |  | CC(C)NC(=NC#N)NS(=O)(=O)c1cnccc1Nc1cccc(Cl)c1
1.8 |  | CC(C)NC(=NC#N)NS(=O)(=O)c1cnccc1NC1CCCCCCC1
1.51 |  | CC(C)NC(=NC#N)NS(=O)(=O)c1cnccc1Nc1cccc(I)c1
1.27 |  | CC(C)NC(=NC#N)NS(=O)(=O)c1cnccc1Nc1cccc(Br)c1
-1.43 |  | CNc1ccncc1S(=O)(=O)NC(=NC#N)NC(C)C
-0.77 |  | CC(C)NC(=NC#N)NS(=O)(=O)c1cnccc1NC1CC1
3.73 |  | CC(C)NC(=NC#N)NS(=O)(=O)c1cnccc1NC1CCCCCCCCCCC1
 | 1.07 | N#CN=C(NS(=O)(=O)c1cnccc1NC1CCCCC1)N1CCCC1
0.16 |  | CCNC(=NC#N)NS(=O)(=O)c1cnccc1NC1CCCCC1
0.91 |  | Cc1ccc(Nc2ccncc2S(=O)(=O)NC(=NC#N)NC(C)C)cc1
0.1 |  | CC(C)CNc1ccncc1S(=O)(=O)NC(=NC#N)NC(C)C
0.86 |  | Cc1cccc(Nc2ccncc2S(=O)(=O)NC(=NC#N)NC(C)C)c1
0.75 |  | CC(C)NC(=NC#N)NS(=O)(=O)c1cnccc1NC1CCCCC1
1.37 |  | CC(C)NC(=NC#N)NS(=O)(=O)c1cnccc1Nc1ccc(Cl)cc1
0.67 |  | Cc1ccccc1Nc1ccncc1S(=O)(=O)NC(=NC#N)NC(C)C
